PubChem BioAssay (NCI)
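Cultured in 96-well plates, cells were exposed to test compound for 48 hours across five concentrations. At the GI50, growth is halved. TGI marks complete inhibition of growth.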

Assays:
Test in all cases: DTP human tumour cell line panel, 48 h; in the data active = GI50 below about 0.43 µM; inactive = the rest
SW-620 colon = test system: SW-620 colon
DU-145 prostate = test system: DU-145 prostate
BT-549 breast = test system: BT-549 breast
A498 renal = test system: A498 renal
NCI-H460 lung = test system: NCI-H460 lung
SN12C renal = test system: SN12C renal
HOP-92 NSCLC = test system: HOP-92 NSCLC
MDA-MB-231 breast = test system: MDA-MB-231 breast
OVCAR-4 ovarian = test system: OVCAR-4 ovarian
COLO 205 colon = test system: COLO 205 colon
U251 CNS = test system: U251 CNS
SK-MEL-5 melanoma = test system: SK-MEL-5 melanoma
NCI-H23 lung = test system: NCI-H23 lung
UO-31 renal = test system: UO-31 renal
SNB-75 CNS = test system: SNB-75 CNS
MOLT-4 leukemia = test system: MOLT-4 leukemia
SK-MEL-2 melanoma = test system: SK-MEL-2 melanoma
HCC-2998 colon = test system: HCC-2998 colon
CAKI-1 renal = test system: CAKI-1 renal
786-0 renal = test system: 786-0 renal
KM12 colon = test system: KM12 colon
UACC-62 melanoma = test system: UACC-62 melanoma
K-562 leukemia = test system: K-562 leukemia
OVCAR-8 ovarian = test system: OVCAR-8 ovarian
MCF7 breast = test system: MCF7 breast
HOP-62 NSCLC = test system: HOP-62 NSCLC
SF-268 CNS = test system: SF-268 CNS
MALME-3M melanoma = test system: MALME-3M melanoma
HS 578T breast = test system: HS 578T breast
A549 NSCLC = test system: A549 NSCLC
M14 melanoma = test system: M14 melanoma
MDA-MB-435 = test system: MDA-MB-435
SNB-19 CNS = test system: SNB-19 CNS
HCT-116 colon = test system: HCT-116 colon
NCI/ADR-RES ovarian = test system: NCI/ADR-RES ovarian
ACHN renal = test system: ACHN renal
IGROV1 ovarian = test system: IGROV1 ovarian
EKVX NSCLC = test system: EKVX NSCLC
SR leukemia = test system: SR leukemia
CCRF-CEM leukemia = test system: CCRF-CEM leukemia
T-47D breast = test system: T-47D breast
SF-539 CNS = test system: SF-539 CNS
OVCAR-3 ovarian = test system: OVCAR-3 ovarian
UACC-257 melanoma = test system: UACC-257 melanoma
SK-MEL-28 melanoma = test system: SK-MEL-28 melanoma
NCI-H226 lung = test system: NCI-H226 lung
NCI-H522 lung = test system: NCI-H522 lung
HCT-15 colon = test system: HCT-15 colon
RPMI-8226 leukemia = test system: RPMI-8226 leukemia
HT29 colon = test system: HT29 colon
SK-OV-3 ovarian = test system: SK-OV-3 ovarian
HL-60(TB) leukemia = test system: HL-60(TB) leukemia
RXF 393 renal = test system: RXF 393 renal
TK-10 renal = test system: TK-10 renal
OVCAR-5 ovarian = test system: OVCAR-5 ovarian
LOX IMVI melanoma = test system: LOX IMVI melanoma

CCC(=O)Nc1ccccc1C#C/C=C\C#Cc1ccccc1SC
80.6 µM: TGI (OVCAR-3 ovarian)
3.83 µM: TGI (SK-MEL-2 melanoma)
27.3 µM: TGI (HCC-2998 colon)
17.4 µM: TGI (SK-MEL-5 melanoma)
29.7 µM: TGI (MCF7 breast)
inactive: GI50 (SW-620 colon) 4.62 µM | GI50 (DU-145 prostate) 40.5 µM | GI50 (BT-549 breast) 14.7 µM | GI50 (A498 renal) 15.1 µM | GI50 (NCI-H460 lung) 3.4 µM | GI50 (SN12C renal) 26.7 µM | GI50 (HOP-92 NSCLC) 3.96 µM | GI50 (MDA-MB-231 breast) 7.92 µM | GI50 (OVCAR-4 ovarian) 30.1 µM | GI50 (COLO 205 colon) 9.84 µM | GI50 (U251 CNS) 6.43 µM | GI50 (SK-MEL-5 melanoma) 3.91 µM | GI50 (NCI-H23 lung) 22.7 µM | GI50 (UO-31 renal) 0.838 µM | GI50 (SNB-75 CNS) 4.76 µM | GI50 (MOLT-4 leukemia) 4.46 µM | GI50 (HCC-2998 colon) 5.09 µM | GI50 (CAKI-1 renal) 5.18 µM | GI50 (786-0 renal) 33.6 µM | GI50 (KM12 colon) 5.27 µM | GI50 (UACC-62 melanoma) 4.04 µM | GI50 (K-562 leukemia) 6.37 µM | GI50 (OVCAR-8 ovarian) 12.3 µM | GI50 (MCF7 breast) 3.39 µM | GI50 (HOP-62 NSCLC) 10 µM | GI50 (SF-268 CNS) 12.3 µM | GI50 (MALME-3M melanoma) 35.1 µM | GI50 (HS 578T breast) 17.1 µM | GI50 (A549 NSCLC) 3.35 µM | GI50 (M14 melanoma) 12 µM | GI50 (MDA-MB-435) 1.92 µM | GI50 (SNB-19 CNS) 43.8 µM | GI50 (HCT-116 colon) 5.61 µM | GI50 (NCI/ADR-RES ovarian) 5.15 µM | GI50 (ACHN renal) 30.1 µM | GI50 (IGROV1 ovarian) 0.738 µM | GI50 (EKVX NSCLC) 7.11 µM | GI50 (SR leukemia) 1.68 µM | GI50 (CCRF-CEM leukemia) 2.75 µM | GI50 (T-47D breast) 8.96 µM | GI50 (SF-539 CNS) 14.2 µM | GI50 (OVCAR-3 ovarian) 8.87 µM | GI50 (UACC-257 melanoma) 12.1 µM | GI50 (SK-MEL-28 melanoma) 8.75 µM | GI50 (NCI-H226 lung) 16.9 µM | GI50 (NCI-H522 lung) 8.89 µM | GI50 (HCT-15 colon) 4.27 µM | GI50 (RPMI-8226 leukemia) 1.26 µM | GI50 (HT29 colon) 5.2 µM | GI50 (SK-OV-3 ovarian) 53.7 µM | GI50 (HL-60(TB) leukemia) 1.46 µM | GI50 (TK-10 renal) 50.4 µM | GI50 (OVCAR-5 ovarian) 33.3 µM | GI50 (LOX IMVI melanoma) 5.47 µM
78.5 µM: TGI (EKVX NSCLC)
37.3 µM: TGI (IGROV1 ovarian)
> 100 µM: TGI (SW-620 colon) | TGI (DU-145 prostate) | TGI (BT-549 breast) | TGI (A498 renal) | TGI (NCI-H460 lung) | TGI (SN12C renal) | TGI (MDA-MB-231 breast) | TGI (OVCAR-4 ovarian) | TGI (COLO 205 colon) | TGI (U251 CNS) | TGI (NCI-H23 lung) | TGI (SNB-75 CNS) | TGI (MOLT-4 leukemia) | TGI (CAKI-1 renal) | TGI (786-0 renal) | TGI (KM12 colon) | TGI (UACC-62 melanoma) | TGI (K-562 leukemia) | TGI (OVCAR-8 ovarian) | TGI (HOP-62 NSCLC) | TGI (SF-268 CNS) | TGI (MALME-3M melanoma) | TGI (HS 578T breast) | TGI (A549 NSCLC) | TGI (M14 melanoma) | TGI (SNB-19 CNS) | TGI (HCT-116 colon) | TGI (ACHN renal) | TGI (SR leukemia) | TGI (T-47D breast) | TGI (SF-539 CNS) | TGI (SK-MEL-28 melanoma) | TGI (NCI-H226 lung) | TGI (NCI-H522 lung) | TGI (HCT-15 colon) | TGI (HT29 colon) | TGI (SK-OV-3 ovarian) | TGI (HL-60(TB) leukemia) | TGI (TK-10 renal) | TGI (OVCAR-5 ovarian) | TGI (LOX IMVI melanoma)
active: GI50 (SK-MEL-2 melanoma) 0.0742 µM
23.7 µM: TGI (CCRF-CEM leukemia)
28.6 µM: TGI (UO-31 renal)
6.17 µM: TGI (MDA-MB-435)
78.7 µM: TGI (HOP-92 NSCLC)
59.2 µM: TGI (UACC-257 melanoma)
65.2 µM: TGI (NCI/ADR-RES ovarian)
1.84 µM: TGI (RXF 393 renal)
11.7 µM: TGI (RPMI-8226 leukemia)
